From ChEMBL document CHEMBL1123976, “Synthesis and pharmacological characterization of 1-phenyl-, 4-phenyl-, and 1-benzyl-1,2,3,4-tetrahydroisoquinolines as dopamine receptor ligands” (J Med Chem, 1988)

Key:
[1] = Inhibition of Dopamine-stimulated adenylate cyclase obtained from rat corpus striatum was determined by the conversion of [32P]ATP to [32P]-cAMP
D(2) dopamine receptor = D(2) dopamine receptor (Rattus norvegicus, UniProt P61169)
Description: Inhibition of [3H]spiperone binding to Dopamine receptor D2 at 0.02 nM

D(1A) dopamine receptor = D(1A) dopamine receptor (Rattus norvegicus, UniProt P18901)
Sequence of D(1A) dopamine receptor (P18901 whole entry): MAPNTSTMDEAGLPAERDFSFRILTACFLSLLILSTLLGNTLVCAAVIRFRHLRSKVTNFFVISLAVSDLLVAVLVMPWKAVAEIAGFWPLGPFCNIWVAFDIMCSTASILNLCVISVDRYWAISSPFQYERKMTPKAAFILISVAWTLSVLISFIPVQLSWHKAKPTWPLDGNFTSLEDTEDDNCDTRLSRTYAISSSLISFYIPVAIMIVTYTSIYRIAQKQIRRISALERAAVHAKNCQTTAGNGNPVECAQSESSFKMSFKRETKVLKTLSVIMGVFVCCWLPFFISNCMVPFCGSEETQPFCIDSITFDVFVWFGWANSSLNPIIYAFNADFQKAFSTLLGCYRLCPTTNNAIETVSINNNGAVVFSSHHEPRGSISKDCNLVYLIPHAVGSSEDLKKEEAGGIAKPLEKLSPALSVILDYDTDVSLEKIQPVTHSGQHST

Sequence of D(2) dopamine receptor (P61169 whole entry): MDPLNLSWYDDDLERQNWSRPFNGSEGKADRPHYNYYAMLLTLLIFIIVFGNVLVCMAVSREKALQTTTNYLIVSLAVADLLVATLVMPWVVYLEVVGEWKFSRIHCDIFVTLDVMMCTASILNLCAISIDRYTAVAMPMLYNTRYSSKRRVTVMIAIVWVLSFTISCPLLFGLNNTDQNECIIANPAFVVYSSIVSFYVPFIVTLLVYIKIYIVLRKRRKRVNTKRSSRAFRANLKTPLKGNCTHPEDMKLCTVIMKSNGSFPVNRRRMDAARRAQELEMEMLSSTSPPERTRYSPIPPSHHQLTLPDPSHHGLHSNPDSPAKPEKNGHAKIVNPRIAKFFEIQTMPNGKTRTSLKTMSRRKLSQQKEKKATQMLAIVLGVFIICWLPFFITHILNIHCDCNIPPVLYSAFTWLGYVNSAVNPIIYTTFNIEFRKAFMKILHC

Row | Compound | Ki [1] [nM] | Ki (D(2) dopamine receptor) [nM] | Ki (D(1A) dopamine receptor) [nM]
1 | CN1CCc2cc(Cl)c(O)cc2C1c1ccccc1 (racemic) | 8.98 | 915 | 12.5
2 | CN1Cc2cc(Cl)c(O)cc2C(c2ccccc2)C1 (racemic) |  | 522 | 174
3 | Oc1cc2c(cc1Cl)CCN[C@@H]2c1ccccc1 |  | 26300 | 743
4 | CN1CCc2cc(Cl)c(O)cc2[C@H]1c1ccccc1 |  | 19200 | 442
5 | CCCN1CCc2cc(Cl)c(O)cc2[C@@H]1c1ccccc1 |  | 1900 | 179
6 | CN1CCc2cc(Cl)c(O)cc2C1Cc1ccccc1 (racemic) |  | 287 | 53.2
7 | Oc1cc2c(cc1Cl)CCN[C@H]2c1ccccc1 |  | 3750 | 140
8 | CN1CCc2cc(Cl)c(O)cc2[C@@H]1c1ccccc1 |  | 1850 | 6.6
9 | Oc1cc2c(cc1Cl)CCNCC2c1ccccc1 (stereo unspecified) |  | 676 | 2.35
10 | Oc1cc2c(cc1Cl)CNCC2c1ccccc1 (racemic) |  | 3620 | 565
